Results as given in patent US20240092761A1, “QUINAZOLINE COMPOUNDS AND METHODS OF USE” (IAMBIC THERAPEUTICS, INC., priority 2022, published 2024).

Assays:
[1] = target: CDK2/Cyclin E1 full length (Homo sapiens (Human), UniProt P24941); assay: CDK2/Cyclin E1 Full Length ADP-Glo Kinase Assay; assay type: biochemical; settings: 20 uM ATP, read-out: CDK2/ CyclinE1 IC50
Method: CDK2/Cyclin E1 Full Length ADP-Glo Kinase Assay
(§1) The purpose of CDK2/Cyclin E1 assay is to evaluate the inhibition (% inhibition and IC50 values) of small molecule inhibitors by using a Luminescent based ADP-Glo assay. CDK2/Cyclin E1 full length catalyzes the production of ADP from ATP. ADP-Glo assay monitors ADP producing biochemical reactions. ADP-Glo is performed in 2 steps upon completion of kinase reaction: a combined termination of kinase reaction and depletion of remaining ATP in the first step, and conversion of generated ADP to ATP and the newly produced ATP to light output using luciferase/luciferin reaction in the second step. The luminescent signal generated is proportional to the ADP concentration produced and is correlated with the kinase activity. CDK2/Cyclin E1 was purchased from Eurofins (Cat 14-475M). Typical reaction solutions (10 uL final reaction volume) contained 2% DMSO (f inhibitor), 10 mM MgCI2, 1 mM EGTA, 0.05% BSA, 2 mM DTT, 20 uM ATP (ATP Km=64.78 uM), 0.01% Brig-35, 0.75 uM substrate, and 0.328 nM wild-type full length CDK2/Cyclin E1 enzyme complex in 50 mM HEPES buffer at pH 7.5. The assay was initiated with the addition of ATP-containing substrate solution, following a 30-minute pre-incubation of enzyme and inhibitor at room temperature in the reaction mixture. The reaction was stopped after 90 minutes at room temperature by the addition of 10 uL of ADP-GLO Reagent. After a 90 minute incubation, 20 uL of Kinase Detection Reagent was added. Samples were incubated for 40 minutes, after which plate well luminescence was measured on a Envision microplate reader. The IC50 determinations were made from a plot of the fractional velocity as a function of inhibitor concentration fit to the 4 parameters IC50 equation.

CDK6/Cyclin D3 = CDK6/Cyclin D3 (Homo sapiens (Human), UniProt Q00534); assay: CDK6/Cyclin D3 ADP-Glo Kinase Assay; assay type: biochemical; settings: 100 uM ATP, read-out: CDK6/ CyclinD3 IC50
Chain of CDK6/Cyclin D3 (Q00534 whole entry): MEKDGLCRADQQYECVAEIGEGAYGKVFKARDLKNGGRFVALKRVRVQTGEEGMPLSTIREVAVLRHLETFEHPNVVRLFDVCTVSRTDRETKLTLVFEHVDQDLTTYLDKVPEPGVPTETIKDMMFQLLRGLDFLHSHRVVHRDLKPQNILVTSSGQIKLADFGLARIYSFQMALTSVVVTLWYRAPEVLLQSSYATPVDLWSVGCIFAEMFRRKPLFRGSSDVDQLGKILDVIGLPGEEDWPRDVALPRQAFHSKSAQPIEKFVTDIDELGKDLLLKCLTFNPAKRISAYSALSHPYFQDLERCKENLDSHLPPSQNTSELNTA
Chain of CDK6/Cyclin D3 (P30281 whole entry partner): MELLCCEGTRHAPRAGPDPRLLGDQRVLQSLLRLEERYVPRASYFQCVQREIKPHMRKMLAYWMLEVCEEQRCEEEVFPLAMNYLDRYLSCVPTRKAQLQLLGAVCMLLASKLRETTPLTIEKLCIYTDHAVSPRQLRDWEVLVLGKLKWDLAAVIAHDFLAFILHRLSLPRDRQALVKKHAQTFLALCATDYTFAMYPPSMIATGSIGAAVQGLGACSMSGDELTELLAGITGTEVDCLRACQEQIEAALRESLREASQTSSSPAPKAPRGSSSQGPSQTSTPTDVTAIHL
Method: CDK6/Cyclin D3 ADP-Glo Kinase Assay
as §1, with “of the CDK6/Cyclin D3” for “of CDK2/Cyclin E1”, “values) in the presence” for “values)”, “assay. CDK6/Cyclin D3” for “assay. CDK2/Cyclin E1 full length”, “activity. CDK6/Cyclin D3” for “activity. CDK2/Cyclin E1”, “from Carna. […]” for “from Eurofins (Cat 14-475M). Typical reaction solutions (10 uL final reaction volume) contained 2% DMSO (f inhibitor), 10 mM MgCI2, 1 mM EGTA, 0.05% BSA, 2 mM DTT, 20 uM ATP (ATP Km=64.78 uM), 0.01% Brig-35, 0.75 uM substrate, and 0.328 nM wild-type full length CDK2/Cyclin E1 enzyme complex in 50 mM HEPES buffer at pH 7.5.”, “a 90-minute” for “a 90 minute”

CDK1/Cyclin B1 = CDK1/Cyclin B1 (Homo sapiens (Human), UniProt P06493); assay: CDK1/Cyclin B1 ADP-Glo Kinase Assay; assay type: biochemical; settings: 80 uM ATP
Chain of CDK1/Cyclin B1 (P06493 whole entry): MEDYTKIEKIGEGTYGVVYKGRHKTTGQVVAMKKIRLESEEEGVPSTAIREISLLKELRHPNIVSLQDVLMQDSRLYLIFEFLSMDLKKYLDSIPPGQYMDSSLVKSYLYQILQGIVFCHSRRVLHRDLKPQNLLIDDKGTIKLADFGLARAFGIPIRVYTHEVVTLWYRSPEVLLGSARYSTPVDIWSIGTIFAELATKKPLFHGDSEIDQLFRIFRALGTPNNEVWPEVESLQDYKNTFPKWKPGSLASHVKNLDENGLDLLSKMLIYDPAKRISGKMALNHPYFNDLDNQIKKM
Chain of CDK1/Cyclin B1 (P14635 whole entry partner): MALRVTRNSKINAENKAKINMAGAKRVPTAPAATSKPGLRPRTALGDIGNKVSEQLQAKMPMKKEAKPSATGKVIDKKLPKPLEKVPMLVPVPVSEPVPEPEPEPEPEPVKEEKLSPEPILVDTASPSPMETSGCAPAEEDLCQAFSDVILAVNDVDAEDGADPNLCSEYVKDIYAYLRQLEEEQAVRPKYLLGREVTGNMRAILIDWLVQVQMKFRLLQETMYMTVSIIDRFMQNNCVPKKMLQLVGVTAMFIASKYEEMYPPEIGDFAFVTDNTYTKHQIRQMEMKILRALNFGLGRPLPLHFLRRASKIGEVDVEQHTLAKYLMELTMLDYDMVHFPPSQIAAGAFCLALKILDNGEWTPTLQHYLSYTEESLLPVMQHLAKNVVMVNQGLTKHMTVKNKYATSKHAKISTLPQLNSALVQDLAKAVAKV
Method: CDK1/Cyclin B1 ADP-Glo Kinase Assay
The purpose of CDK1/Cyclin B1 assay is to evaluate the inhibition (% inhibition and IC50 values) of small molecule inhibitors by using a Luminescent based ADP-Glo assay. CDK1/Cyclin B1 catalyzes the production of ADP from ATP. ADP-Glo assay monitors ADP producing biochemical reactions. ADP-Glo is performed in 2 steps upon completion of kinase reaction: a combined termination of kinase reaction and depletion of remaining ATP in the first step, and conversion of generated ADP to ATP and the newly produced ATP to light output using luciferase/luciferin reaction in the second step. The luminescent signal generated is proportional to the ADP concentration produced and is correlated with the kinase activity. CDK1/Cyclin B1 was purchased from Carna (Cat 04-102). Typical reaction solutions (10 uL final reaction volume) contained 2% DMSO (f inhibitor), 10 mM MgCl2, 1 mM EGTA, 0.05% BSA, 2 mM DTT, 80 uM ATP (ATP Km=78.6 uM), 0.01% Brig-35, 0.75 uM substrate, and 4.917 nM CDK1/Cyclin Bl enzyme complex in 50 mM HEPES buffer at pH 7.5. The assay was initiated with the addition of ATP-containing substrate solution, following a 30-minute pre-incubation of enzyme and inhibitor at room temperature in the reaction mixture. The reaction was stopped after 90 minutes at room temperature by the addition of 10 uL of ADP-GLO Reagent. After a 90 minute incubation, 20 uL of Kinase Detection Reagent was added. Samples were incubated for 40 minutes, after which plate well luminescence was measured on a Envision microplate reader. The IC50 determinations were made from a plot of the fractional velocity as a function of inhibitor concentration fit to the 4 parameters IC50 equation.

CDK4/Cyclin D1 = CDK4/Cyclin D1 (Homo sapiens (Human), UniProt P11802); assay: CDK4/Cyclin D1 CHEF Assay (AQT0258 peptide); assay type: biochemical; settings: 200 uM ATP, read-out: CDK4/ CyclinD1 AQT IC50
Chain of CDK4/Cyclin D1 (P11802 whole entry): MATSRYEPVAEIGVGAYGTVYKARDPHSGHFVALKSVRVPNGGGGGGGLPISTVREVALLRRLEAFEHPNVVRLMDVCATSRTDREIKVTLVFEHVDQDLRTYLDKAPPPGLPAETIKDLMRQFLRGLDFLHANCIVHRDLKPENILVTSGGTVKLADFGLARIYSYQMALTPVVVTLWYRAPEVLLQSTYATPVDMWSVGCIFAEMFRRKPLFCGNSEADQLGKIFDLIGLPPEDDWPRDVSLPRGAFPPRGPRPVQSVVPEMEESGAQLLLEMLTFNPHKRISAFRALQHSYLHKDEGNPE
Chain of CDK4/Cyclin D1 (P24385 whole entry partner): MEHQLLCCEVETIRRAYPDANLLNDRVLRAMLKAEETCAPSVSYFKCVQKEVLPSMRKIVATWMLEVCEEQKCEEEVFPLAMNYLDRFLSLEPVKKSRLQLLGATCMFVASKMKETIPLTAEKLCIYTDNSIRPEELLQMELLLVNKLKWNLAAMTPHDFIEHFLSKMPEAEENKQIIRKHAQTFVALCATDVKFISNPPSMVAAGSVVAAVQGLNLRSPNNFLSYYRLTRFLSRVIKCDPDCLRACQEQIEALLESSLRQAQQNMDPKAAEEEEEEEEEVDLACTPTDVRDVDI
Source text: CDK4/Cyclin D1 CHEF Assay
The purpose of CDK4/Cyclin Dl assay is to evaluate the inhibition (% inhibition and IC50 values) of small molecule inhibitors by using a Chelation-Enhance Fluorescence (CHEF) assay. In a CHEF assay, phosphorylation of a peptide substrate results in proportional increase in fluorescence. CHEF kinase assay use peptide substrates containing a synthetic alpha-amino acid with a side chain bearing an 8-hydroxyquinoline derivative (sulfonamido-oxide, Sox). Upon phosphorylation of a nearby serine, threonine or tyrosine and in the presence of Mg(II), the spectral properties of the Sox residue are altered, emitting 485 nm wavelength light when excited with a 360 nm wavelength light source. CDK4/Cyclin D1 catalyzes the phosphoryl transfer to the SOX-labeled substrate peptide AQT0258 from Assayquant Technologies. Typical reaction solutions contained 2% DMSO (+/−inhibitor), 10 mM MgCl2, 1 mM DTT, 200 uM ATP (ATP Km=195.2 uM), 0.012% Brig-35, 10 uM AQT0258 peptide, 0.02% BSA, 1% Glycerol, 0.55 mM EGTA, 2.5 nM CDK4/Cyclin D1 in 54 mM HEPES buffer at pH 7.5. The reaction was initiated with the addition of substrate solution, following a 30-minute pre-incubation of enzyme and inhibitor at 22° C. in the reaction mix. Reactions were allowed to proceed for 3 hrs at 22° C., followed by fluorescence read of the reaction. The IC50 determinations were made from a plot of the fractional velocity as a function of inhibitor concentration fit to the 4 parameters IC50 equation.

OVCAR-3 cells = assay: Cell Growth Inhibition, OVCAR-3 (CellTiterGlo, 6 days); assay type: cell-based; settings: OVCAR-3, 6-day treatment, CellTiterGlo 2.0
Source text: (§2) MCF-7 and OVCAR-3 cells were used to evaluate the anti-proliferation activity of the CDK inhibitors. MCF-7 (ATCC, HTB-22) cells are epithelial cells from a patient with ER+ metastatic adenocarcinoma. OVCAR-3 (ATCC, HTB-161) cells were derived from malignant ascites of a patient with ovarian cancer and are known to have CCNE1 amplification. Both cell lines were maintained in RPMI media supplemented with 10% fetal bovine serum. For cell growth inhibition assay, CDK inhibitors in DMSO solution were dispensed with either Echo 655 (Beckman Coulter) or Tecan D300e (HP) into 384-well plates (Corning #3765) and the 384-well plates were UV-sterilized prior to the assay. The inhibitors were typically tested in the 10-10,000 nM concentration range with half-log serial dilutions. MCF-7 or OVCAR-3 (500 cells/30 μL/well) were added to each well using Multidrop Combi (ThermoFisher) using standard cassettes. The assay plates with cells were cultured at 37° C., 5% CO2 for 6 days. At the end of the 6-day treatment, 30 μL of CellTiterGlo 2.0 (Promega) was added to each well and the luminescent signal was read using CLARIOstar plus (BMG). The percentage of cell growth inhibition (% CGI) was calculated using the following formula % CGI=100−100×luminescencesample/luminescencecontrol. The half maximal inhibitory concentration (IC50) was determined by nonlinear curve fitting (four parameters, variable slope).

MCF-7 cells = assay: Cell Growth Inhibition, MCF-7 (CellTiterGlo, 6 days); assay type: cell-based; settings: MCF-7, 6-day treatment, CellTiterGlo 2.0
Source text: as §2

SMILES | IC50 [1] [nM] | IC50 (CDK6/Cyclin D3) [nM] | IC50 (CDK1/Cyclin B1) [nM] | IC50 (CDK4/Cyclin D1) [nM] | IC50 (OVCAR-3 cells; Homo sapiens, 144 h) [nM] | IC50 (MCF-7 cells; Homo sapiens, MCF7, 144 h) [nM] | IC50 (OVCAR-3 cells) [nM] | IC50 (MCF-7 cells) [nM]
O[C@@H]1COCC[C@H]1Nc1ncc2cc(C(F)F)cc(N3CC(F)(F)C4(CNC4)C3)c2n1 (racemic) [Example 117, (3S,4R)-4-((8-(8,8-difluoro-2,6-diazaspiro[3.4]octan-6-yl)-6-(difluoromethyl)quinazolin-2-yl)amino)tetrahydro-2H-pyran-3-ol] | < 200 | < 200 | > 2000 | < 200 | > 2000 | 500 to 2000 |  | 
CS(=O)(=O)N1CC[C@@H](Nc2ncc3cc(C(F)F)cc(N4CC(F)(F)C5(CNC5)C4)c3n2)[C@H](O)C1 (racemic) [Example 118, (3R,4R)-4-((8-(8,8-difluoro-2,6-diazaspiro[3.4]octan-6-yl)-6-(difluoromethyl)quinazolin-2-yl)amino)-1-(methylsulfonyl)piperidin-3-ol] | < 200 | < 200 | 500 to 2000 | < 200 | > 2000 |  |  | 
CN1C[C@@H]2C(Nc3ncc4cc(C(F)F)cc(N5CCC6(CCN(S(C)(=O)=O)C6)C5)c4n3)[C@@H]2C1 (stereo partly drawn) [Example 56, 6-(difluoromethyl)-N-((1R,5S,6s)-3-methyl-3-azabicyclo[3.1.0]hexan-6-yl)-8-(7-(methylsulfonyl)-2,7-diazaspiro[4.4]nonan-2-yl)quinazolin-2-amine] | > 2000 | > 2000 | > 2000 | 200 to 500 |  |  | > 2000 | > 2000
CN1Cc2ccc(Nc3ncc4cc(C(F)F)cc(N5CC6(CN(C)C6)C5)c4n3)cc2C1 [Example 57, 6-(difluoromethyl)-8-(6-methyl-2,6-diazaspiro[3.3]heptan-2-yl)-N-(2-methylisoindolin-5-yl)quinazolin-2-amine] | < 200 | < 200 | > 2000 | < 200 | 500 to 2000 | 500 to 2000 |  | 
Cn1cc(S(=O)(=O)N2CCC(Nc3ncc4cccc(N5CC(O)(C(F)F)C5)c4n3)CC2)cn1 [Example 119, 3-(difluoromethyl)-1-(2-((1-((1-methyl-1H-pyrazol-4-yl)sulfonyl)piperidin-4-yl)amino)quinazolin-8-yl)azetidin-3-ol] | < 200 | < 200 | < 200 | < 200 | 500 to 2000 |  |  | 

Results, then the molecule that gave them:

IC50 [1] [nM] | IC50 (CDK6/Cyclin D3) [nM] | IC50 (CDK1/Cyclin B1) [nM] | IC50 (CDK4/Cyclin D1) [nM] | IC50 (OVCAR-3 cells; Homo sapiens, 144 h) [nM] | IC50 (MCF-7 cells; Homo sapiens, MCF7, 144 h) [nM] | IC50 (OVCAR-3 cells) [nM] | IC50 (MCF-7 cells) [nM] | SMILES
< 200 | < 200 | 200 to 500 |  | > 2000 | 500 to 2000 |  |  | CC(=O)N1CCC2(CCC(c3cccc4cnc(NC5CCN(S(C)(=O)=O)CC5)nc34)C2)C1 (stereo not shown) [Example 35]
< 200 |  | < 200 |  | < 200 | < 200 |  |  | CN1CC2(CC(c3cc(C(F)F)cc4cnc(NC5CCN(S(C)(=O)=O)CC5)nc34)C2)C1 [Example 67, 6-(difluoromethyl)-8-(2-methyl-2-azaspiro[3.3]heptan-6-yl)-N-(1-(methylsulfonyl)piperidin-4-yl)quinazolin-2-amine]
< 200 | < 200 | 500 to 2000 | < 200 |  |  |  |  | COC1CC2(C1)CC(c1cccc3cnc(NC4CCN(S(C)(=O)=O)CC4)nc13)C2 (stereo not shown) [Example 107, 8-(6-methoxyspiro[3.3]heptan-2-yl)-N-(1-(methylsulfonyl)piperidin-4-yl)quinazolin-2-amine]
< 200 | < 200 | < 200 | < 200 |  |  |  |  | COC1CC2(C1)CC(c1cc(C(F)F)cc3cnc(NC4CCN(S(C)(=O)=O)CC4)nc13)C2 (stereo not shown) [Example 108, 6-(difluoromethyl)-8-(6-methoxyspiro[3.3]heptan-2-yl)-N-(1-(methylsulfonyl)piperidin-4-yl)quinazolin-2-amine]
< 200 | < 200 | < 200 | < 200 |  |  |  |  | CS(=O)(=O)N1CCC(Nc2ncc3cccc(C4CC5(CNCC5(F)F)C4)c3n2)CC1 (stereo not shown) [Example 122, 8-(8,8-difluoro-6-azaspiro[3.4]octan-2-yl)-N-(1-(methylsulfonyl)piperidin-4-yl)quinazolin-2-amine]
